# Assay results taken from patent US20050272605A1, “Method to treat seeds” (priority 2002, published 2005).
# Tests used:
# [1] = system: Brachiaria brizantha seeds; experiment: Germination test of acid-scarified Brachiaria brizantha seeds on soil or paper substrate (Example 3); type: in vivo
# Experimental: Effect of nitrate on a lot of acid-scarified Brachiaria brizantha imported from Brazil in July 2001, shortly after harvesting from the soil surface, using different substrates for the germination test.
# The seeds were treated on Aug. 15, 2001 and after drying, samples were taken and tested for germination on Aug. 24, 2001. The soil substrate was maintained at the same moisture level throughout the test by weight. The paper substrate was maintained moist by irrigation from below, using a piece of plastic foam to separate the paper from the water in the base of the tray.
# Paspalum notatum seeds [2] = experiment: Germination of Paspalum notatum seeds, lot of 1997 (Example 4); type: in vivo, Paspalum notatum (cv. Pensacola)
# [3] = system: Brachiaria dictyoneura seeds; experiment: Germination test of Brachiaria dictyoneura seeds after scarification, nitrate soaking and GA (Example 2); type: in vivo
# Text: The seeds (two replicates of 100 seeds) were sown on a soil substrate with the same growth conditions described above.
# Paspalum notatum seeds [4] = experiment: Germination of Paspalum notatum seeds, lot of 2001 (Example 5); type: in vivo, Paspalum notatum cv Pensacola; settings: one scarification and aerated nitrate treatment
# Panicum maximum seeds = experiment: Germination of Panicum maximum seeds (Example 6); type: in vivo, Panicum maximum cv. Tanzania; settings: scarified seeds
# [5] = system: Brachiaria dictyoneura seeds; experiment: Germination test of Brachiaria dictyoneura seeds after scarification and aerated nitrate treatment (Example 1); type: in vivo; settings: for % Germination 7 days (paper + water): paper substrate irrigated with water, after 7 months storage
# Experimental: The tank is filled with an approximately 0.2% solution of potassium nitrate 16 in water, to level which will ensure that the seed-containing bags are just immersed. The seeds 15 are immersed at ambient temperature for about 10 to about 36 hours, during which time the tank is constantly aerated by a flow of air form the compressed air source through the perforated pipe 12. The bags are then removed form the tank 10 and allowed to drain for about 12 hours. If the seed being treated requires addition of further agents such as gibberellic acid or smoke extract, then suitable quantities of these ingredients in solution are poured over the draining seed, and mixed by hand. The seeds are then dried to between 8% and 14% moisture content, preferably 12% moisture content, and stored as required.
# A lot of Brachiaria dictyoneura seeds were harvested manually (by cutting the panicle and sweating for six days in heaps, and then threshing) in Zapote, Pérez Zeledón, Costa Rica, in July 2000. The seeds were dried in the shade, classified to remove waste and stored at 15° C. and 60% relative humidity for six months. A 30 kg sample of this seed lot was then scarified for 30 minutes with concentrated sulphuric acid on Jan. 4, 2001. The seeds were dried to 12% moisture and then re-scarified for a further 15 minutes on Feb. 26, 2001. After the second scarification the seeds were soaked in potassium nitrate for 24 hours and drained for 12 hours by the process described above.
# Small 50 g sub-samples of the same seed lot were also taken, some of which were scarified once or twice but not treated, and some of which only received the first 30-minute scarification, but were treated. The seeds were then dried carefully in the sun until they reached the 12% moisture content. A sample of the nitrate treated, double scarified seed was tested for germination on Mar. 8, 2001, using 3 replicates of […] pure seeds on a soil-based substrate, at approximately 35° C. during the day, and 15° C. during the night, with florescent and incandescent lighting during the day (12 hours), in closed plastic germination trays. The result was 79% germination after 26 days. The four samples were then stored for a further 7 months when the following germination test was carried out on Nov. 17, 2001, using 4 replicates of 100 seeds on a paper substrate irrigated with water, and the same growth conditions described above.
compound,measurement,setting,value
"O=[N+]([O-])[O-].[K+] [Nitrate, potassium nitrate]",% Germination 7 days,[1]; Paper substrate,77cd %
same,% Germination 25 days,[1]; Paper substrate,82cde %
same,% Germination 7 days,[1]; Soil substrate,88de %
same,% Germination 25 days,[1]; Soil substrate,90e %
same,% Germination,Paspalum notatum seeds [2]; Scarification 10 minutes,64.8%
same,% Germination,Paspalum notatum seeds [2]; Scarification 20 minutes,63.5%
same,% Germination 15 days (soil substrate),[3]; Scarification once (20 minutes),42.5b %
same,% Germination 15 days (soil substrate),[3]; Scarification twice (20 + 10 minutes),65.0c %
same,% Germination,Paspalum notatum seeds [4],79.0%
same,% Germination,Panicum maximum seeds,50.0%
same,% Germination 7 days (paper + water),"[5]; Scarified once, listed as Aerated nitrate treatment",87.25c %
same,% Germination 7 days (paper + water),"[5]; Scarified once, listed as aerated nitrate treatment",87%
same,% Germination 7 days (paper + water),"[5]; Scarified twice, listed as Aerated nitrate treatment",93.00c %
same,% Germination 7 days (paper + water),"[5]; Scarified twice, listed as aerated nitrate treatment",93%
same,germination after 26 days,"[5]; double scarified seed, soil-based substrate, tested Mar. 8, 2001",79%
same,seedling vigor,[5]; seedlings from treated seeds versus untreated,greater vigor
same,increase in germination due to nitrate treatment,[5]; seeds scarified once,30%
same,increase in germination due to nitrate treatment,[5]; seeds scarified twice,20%
